Measurements as given in patent publication US20200123175A1, “NOVEL ISOTHIAZOLO-BASED BICYCLES, PROCESSES FOR THEIR PREPARATION AND THEIR USE AS HERBICIDES AND/OR PLANT GROWTH REGULATORS” (Bayer CropScience Aktiengesellschaft, priority 2017, published 2020).

Tests used:
Conditions in all cases: dosage 320 g/ha
POLCO = assay: Herbicidal action pre-emergence (PE); assay type: in vivo, Polygonum convolvulus
VIOTR [1] = assay: Herbicidal action pre-emergence (PE); assay type: in vivo, Viola tricolor
MATIN = assay: Herbicidal action pre-emergence (PE); assay type: in vivo, Matricaria inodora
ABUTH = assay: Herbicidal action post-emergence (PO); assay type: in vivo, Abutilon theophrasti
ECHCG = assay: Herbicidal action pre-emergence (PE); assay type: in vivo, Echinochloa crus-galli
PHBPU = assay: Herbicidal action post-emergence (PO); assay type: in vivo, Pharbitis purpurea
SETVI [2] = assay: Herbicidal action pre-emergence (PE); assay type: in vivo, Setaria viridis
AMARE [3] = assay: Herbicidal action pre-emergence (PE); assay type: in vivo, Amaranthus retroflexus
VIOTR [4] = assay: Herbicidal action post-emergence (PO); assay type: in vivo, Viola tricolor
AMARE [5] = assay: Herbicidal action post-emergence (PO); assay type: in vivo, Amaranthus retroflexus
SETVI [6] = assay: Herbicidal action post-emergence (PO); assay type: in vivo, Setaria viridis

Row | Compound | POLCO (POLCO) | VIOTR (VIOTR [1]) | MATIN (MATIN) | ABUTH (ABUTH) | ECHCG (ECHCG) | PHBPU (PHBPU) | SETVI (SETVI [2]) | AMARE (AMARE [3]) | VIOTR (VIOTR [4]) | AMARE (AMARE [5]) | SETVI (SETVI [6])
1 | Nc1nsc2c(=O)n(CC3CCCCC3)cnc12 [Example I-17] | 100 | 100 | 100 | 90 | 100 | 100 | 100 | 100 | 100 | 100 | 100
2 | Nc1nsc2c(=O)n(CC3=CCCCC3)cnc12 [Example I-29] | 100 | 100 | 100 | 80 | 100 | 80 | 100 | 100 | 100 | 100 | 100
3 | Nc1nsc2c(=O)n(CC3CCCCCC3)cnc12 [Example I-31] | 100 | 100 | 100 | – | 90 | – | 100 | 100 | – | – | –
4 | CC(c1ccccc1)n1cnc2c(NC(=O)C3CC3)nsc2c1=O (stereo not shown) [Example I-40] | – | – | – | 100 | – | 100 | – | – | 100 | 100 | 90
5 | Nc1nsc2c1NCN(Cc1ccc(F)cc1F)C2=O [Example I-42] | 100 | 100 | 100 | 80 | 100 | 100 | 100 | 100 | 100 | 100 | 100
6 | Nc1nsc2c1NCN(CC1CCCCO1)C2=O (stereo not shown) [Example I-43] | 100 | 100 | 90 | – | 100 | – | 90 | 100 | – | – | –
7 | CCCC(=O)Nc1nsc2c(=O)n(CC3CCCCC3)cnc12 [Example I-45] | 100 | 100 | 100 | 100 | 100 | – | 100 | 100 | 90 | 100 | –
8 | O=C(Nc1nsc2c(=O)n(CC3CCCCC3)cnc12)C(F)(F)F [Example I-53] | 100 | 100 | 100 | 100 | 100 | 100 | 100 | 100 | 100 | 100 | 100
9 | CCC(=O)Nc1nsc2c(=O)n(CC3CCCCC3)cnc12 [Example I-54] | 100 | 100 | 100 | 100 | 100 | – | 100 | 100 | 90 | 100 | –
10 | CC(=O)Nc1nsc2c(=O)n(CC3CCCCC3)cnc12 [Example I-55] | 100 | 100 | 100 | 100 | 100 | – | 100 | 100 | 100 | 100 | –
11 | O=C(CCl)Nc1nsc2c(=O)n(CC3CCCCC3)cnc12 [Example I-56] | 100 | 100 | 90 | – | 100 | – | 100 | 100 | – | – | –
12 | O=C(Nc1nsc2c(=O)n(CC3CCCCC3)cnc12)C(F)(F)C(F)(F)F [Example I-57] | 100 | 100 | 100 | 100 | 100 | – | 100 | 100 | 100 | 100 | –
13 | O=C(Nc1nsc2c(=O)n(CC3CCCCC3)cnc12)C(F)(F)C(F)(F)C(F)(F)F [Example I-58] | 90 | 100 | 90 | 90 | 100 | – | 100 | 100 | 100 | 100 | –
14 | Nc1nsc2c1NCN(CC1CCCCCC1)C2=O [Example I-59, 3-amino-6-(cycloheptylmethyl)-4,5-dihydroisothiazolo[4,5-d]pyrimidin-7-one] | 100 | 100 | 100 | 100 | 100 | 100 | 100 | 100 | 100 | 100 | 100
15 | Nc1nsc2c1NCN(CC1CCCCC1)C2=O [Example I-61] | 100 | 100 | 100 | 100 | 100 | 90 | 100 | 100 | 100 | 100 | 100
16 | Nc1nsc2c1NCN(CC1CCCC1)C2=O [Example I-63] | 100 | 100 | 100 | 100 | 100 | – | 100 | 100 | 100 | 100 | –
17 | Nc1nsc2c1NCN(Cc1ccc(F)cc1)C2=O [Example I-64] | 90 | 100 | 100 | 90 | 100 | – | 100 | 100 | 80 | 100 | –
18 | O=C(Nc1nsc2c(=O)n(CC3CCCCC3)cnc12)C(F)(Cl)C(F)(F)F (stereo not shown) [Example I-67] | 100 | 100 | 100 | – | 100 | – | 100 | 100 | – | – | –
19 | O=C(Nc1nsc2c(=O)n(CC3CCCCC3)cnc12)C(F)(F)C(F)(F)Cl [Example I-68] | 100 | 100 | 100 | 100 | 100 | 100 | 100 | 100 | 100 | 100 | 100
20 | COCC(=O)Nc1nsc2c(=O)n(CC3CCCCC3)cnc12 [Example I-69] | 100 | 100 | 100 | 90 | 100 | 100 | 100 | 100 | 100 | 100 | 100
21 | COC(=O)CC(=O)Nc1nsc2c(=O)n(CC3CCCCC3)cnc12 [Example I-71] | 100 | 100 | 100 | 100 | 100 | 100 | 100 | 100 | 100 | 100 | 100
22 | COC(=O)CCC(=O)Nc1nsc2c(=O)n(CC3CCCCC3)cnc12 [Example I-72] | 100 | 100 | 100 | 100 | 100 | 100 | 100 | 100 | 90 | 100 | 90
23 | O=C(CC(F)(F)F)Nc1nsc2c(=O)n(CC3CCCCC3)cnc12 [Example I-73] | 100 | 100 | 100 | 100 | 100 | – | 100 | 100 | 100 | 100 | –
24 | Cc1nn(CC2CCCCC2)c(=O)c2snc(N)c12 [Example I-75, 3-amino-6-(cyclohexylmethyl)-4-methyl-isothiazolo[4,5-d]pyridazin-7-one] | 90 | 90 | 90 | – | 90 | – | 100 | 100 | – | – | –
25 | O=C(Nc1nsc2c(=O)n(Cc3ccc(F)cc3F)cnc12)C(F)(F)C(F)(F)Cl [Example I-76] | 100 | 100 | 100 | 80 | 90 | – | 100 | 100 | 100 | 100 | –
26 | O=C(Nc1nsc2c(=O)n(Cc3ccc(F)cc3F)cnc12)C(F)(Cl)C(F)(F)F (stereo not shown) [Example I-77] | 100 | 100 | 100 | – | 80 | – | 100 | 100 | – | – | –
27 | COC(=O)C(=O)Nc1nsc2c(=O)n(Cc3ccc(F)cc3F)cnc12 [Example I-81] | 100 | 100 | 100 | – | 100 | – | 90 | 100 | – | – | –
28 | O=C(CC(F)(F)F)Nc1nsc2c(=O)n(Cc3ccc(F)cc3F)cnc12 [Example I-82] | 100 | 100 | 100 | – | 100 | – | 100 | 100 | – | – | –
29 | COCC(=O)Nc1nsc2c(=O)n(Cc3ccc(F)cc3F)cnc12 [Example I-83] | 90 | 100 | 100 | – | 100 | – | 100 | 100 | – | – | –
